Values joined by “and” are separate entries in the source; they are usually repeats but may differ in a detail not shown here. Equal entries are not always repeated.
What was measured:
[1] = target: T1, human TLR2 (Homo sapiens, UniProt O60603); assay: Activation of human TLR2 II: HEK-BLUE-hTLR2 NF-kB/SEAP reporter assay; type: cell-based; settings: for optical density (650 nm): screenings 1-3
T1 construct: expressed in transfected cells; host or cells: HEK-Blue hTLR2 cells
Experimental: The potency of the compounds as activators of human TLR-2s is tested in an in vitro assay in HEK-BLUE-hTLR2 cells.
HEK-BLUE-hTLR2 cells are designed for studying the stimulation of human TLR2 (hTLR2) by monitoring the activation of NF-kB. HEK-BLUE-hTLR2 cells are obtained by co-transfection of the hTLR2 and SEAP (secreted embryonic alkaline phosphatase) reporter genes into HEK293 cells. Stimulation with a TLR2 ligand activates NF-kB which induces the production of SEAP.
HEK-BLUE-hTLR2 cells were purchased from InvivoGen (San Diego, CA, USA). Cells were grown in DMEM supplemented with 10% FCS, 100 U/ml penicillin, 100 ug/ml streptomycin and 2 mM L-glutamine, 100 µg/mL Normocin in the presence of selection antibiotic purchased from InvivoGen and passaged when 70% confluence was reached per manufacturer’s recommendation.
i) A serial dilution of respective compounds were prepared in saline and added in […] of each dilution in triplicates per well in a flat bottom 96-well plate and placed in the incubator while waiting for the cells.
ii) Remove HEK-BLUE-hTLR2 cells in a T-75 flask from incubator and discard the growth media.
iii) Gently rinse the cells with prewarmed 10 ml of PBS
iv) Add 5 ml of prewarmed PBS and place the cells in 37° C. for 2 mins and then detach the cells by gently pipetting up and down the PBS on the surface where the cells adhere.
v) Cells suspension at the density of 280,000 cells/ml is prepared in HEK-Blue™ Detection medium which is purchased from InvivoGen and prepared according to the manufacturer’s instruction,
vi) Add immediately […] of the cell suspension per well of the plate which contains the solution of the compounds. […]

[2] = target: T1, human TLR2; assay: Activation of human TLR2 III: HEK-Blue hTLR2 dose response (SEAP reporter); type: cell-based; settings: for optical density (650 nm): screenings 1-3
Experimental: Toll-Like Receptor (TLR) stimulation is tested by assessing NF-KB activation in the TLR expressing cell lines. HEK-Blue h/mTLR2 cells have been stably transfected with human or mouse TLR2 and CD14. The activity of the test articles are tested on human and mouse TLR2, as potential agonists. The test articles are evaluated at seven concentrations and compared to control ligands (see list below). These steps are performed in triplicate.
A 5 µg/mL working stock was then prepared for each compound from the 20 µg/mL dilution in sterile PBS. Starting from the 5 µg/mL working stock, a series of six 1:4 serial dilutions were made by mixing 100 µL of the previous highest dilution with 300 µL sterile PBS.
(§1) The secreted embryonic alkaline phosphatase (SEAP) reporter is under the control of a promoter inducible by the transcription factor NF-κB. This reporter gene allows the monitoring of signaling through the TLR, based on the activation of NF-κB. In a 96-well plate (200 µL total volume) containing the appropriate cells (50,000 - 75,000 cells/well), 20 µL of the test article or the positive control ligand (HKLC) is added to the wells. The media added to the wells is designed for the detection of NF-κB induced SEAP expression. After a 16-24-hour incubation the optical density (OD) is read at 650 nm on a Molecular Devices SpectraMax 340PC absorbance detector.

[3] = test system: HEK-Blue Null2 cells; assay: TLR- control cell line HEK-Blue Null2 (control for mouse TLR2); type: cell-based
Experimental: as §1

[4] = Stability IV: accelerated storage stability over 28 days, UHPLC; type: physicochemical; settings: 40° C./75% RH
Experimental: (§2) Each compound was formulated in 0.9% w/w saline with addition of 0.1% w/w EDTA at about pH 5. The formulations were stored in the dark under accelerated conditions (40° C./75% RH) and reference formulations were stored at -80° C. At days 0, 9 and 28, samples were analysed by UHPLC and pH was measured.
Approximately 1.5 mg of each compound was weighed into glass HPLC vials and 1.5 mL of saline/EDTA formulation adjusted to pH 5.0 was added. The vials were vortex mixed then warmed under running hot water until full dissolution was observed.
4 × 100 uL aliquots of each solution were transferred to Agilent polypropylene 200 µL HPLC vials for storage under accelerated and reference conditions (two aliquots at each condition). These vials were removed at each time point for HPLC analysis. The frozen reference solutions at Day 9 and Day 28 were gently warmed under running hot water followed by vortex mixing for ~ 10 sec and sonication for 10 min to encourage complete dissolution. […]
Compounds B4 and B12 were analysed according to Gradient 2: […]
UHPLC results were analysed in a similarly to that described in Example 8. […]
Percentage recovery of main peak area is calculated according to the following equation (1): […]

[5] = Stability IV: formulation pH during accelerated storage; type: physicochemical
Experimental: as §2
The remaining ~ 1 mL of solution in the clear glass HPLC vials was stored at 40° C./75% RH and was used to measure pH at each time point.
The formulation pH data recorded at each time point are compiled in Table 19. There was a general trend for the pH to increase with time but the effect was not pronounced.

T1 sequence (O60603 21-784): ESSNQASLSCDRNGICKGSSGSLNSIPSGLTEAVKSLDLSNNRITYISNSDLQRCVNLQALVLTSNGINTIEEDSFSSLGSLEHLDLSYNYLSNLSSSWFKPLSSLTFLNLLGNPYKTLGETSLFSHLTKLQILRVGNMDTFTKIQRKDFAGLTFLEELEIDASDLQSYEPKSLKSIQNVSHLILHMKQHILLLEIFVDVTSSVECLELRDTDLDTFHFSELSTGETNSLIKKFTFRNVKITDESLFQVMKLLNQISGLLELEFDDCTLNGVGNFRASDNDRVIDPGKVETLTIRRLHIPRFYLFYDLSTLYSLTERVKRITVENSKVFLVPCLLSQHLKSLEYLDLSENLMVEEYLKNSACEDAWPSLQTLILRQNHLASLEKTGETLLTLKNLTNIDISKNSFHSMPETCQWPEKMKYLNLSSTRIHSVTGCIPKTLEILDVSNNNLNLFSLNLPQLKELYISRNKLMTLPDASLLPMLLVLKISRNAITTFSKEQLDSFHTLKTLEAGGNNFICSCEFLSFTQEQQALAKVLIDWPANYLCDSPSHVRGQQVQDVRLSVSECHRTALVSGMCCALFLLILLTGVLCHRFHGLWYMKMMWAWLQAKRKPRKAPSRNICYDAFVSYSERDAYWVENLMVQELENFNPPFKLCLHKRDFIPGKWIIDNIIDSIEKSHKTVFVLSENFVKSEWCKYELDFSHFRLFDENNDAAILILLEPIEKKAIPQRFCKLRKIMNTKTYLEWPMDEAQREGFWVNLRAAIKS
T1 sequence (Q9Y2C9 32-796 partner): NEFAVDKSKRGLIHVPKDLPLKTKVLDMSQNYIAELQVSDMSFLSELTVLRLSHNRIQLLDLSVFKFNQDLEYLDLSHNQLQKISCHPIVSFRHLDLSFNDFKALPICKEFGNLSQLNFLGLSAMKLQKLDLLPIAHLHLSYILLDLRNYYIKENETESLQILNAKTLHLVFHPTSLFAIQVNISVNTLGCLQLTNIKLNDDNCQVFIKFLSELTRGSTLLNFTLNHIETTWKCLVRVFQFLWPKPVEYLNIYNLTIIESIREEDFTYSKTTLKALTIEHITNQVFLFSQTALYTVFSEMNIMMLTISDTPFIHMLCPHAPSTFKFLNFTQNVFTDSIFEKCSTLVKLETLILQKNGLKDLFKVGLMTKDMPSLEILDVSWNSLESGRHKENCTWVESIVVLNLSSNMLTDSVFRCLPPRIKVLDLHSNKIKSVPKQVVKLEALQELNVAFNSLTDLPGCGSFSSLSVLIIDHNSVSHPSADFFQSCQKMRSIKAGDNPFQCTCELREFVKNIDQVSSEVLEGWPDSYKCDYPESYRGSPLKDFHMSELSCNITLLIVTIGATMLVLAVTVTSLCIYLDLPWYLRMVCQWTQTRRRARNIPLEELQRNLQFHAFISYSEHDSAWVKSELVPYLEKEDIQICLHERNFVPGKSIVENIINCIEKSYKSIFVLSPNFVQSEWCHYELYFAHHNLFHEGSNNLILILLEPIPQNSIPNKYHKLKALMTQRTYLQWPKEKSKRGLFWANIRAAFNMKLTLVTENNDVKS

CCCCCCCCCCCCCCC(C)C(=O)OC[C@H](CSC[C@H](N)C(=O)N[C@@H](CO)C(=O)NCCOCCOCCOCCOCCOCCOCCOCCOCCOCCOCCOCCOCCOCCOCCOCCOCCOCCOCCOCCOCCOCCOCCOCCOCCOCCOCCOCCOCCC(=O)NCC(N)=O)OC(=O)C(C)CCCCCCCCCCCCCC (some centres unmarked) [Compound B4]
optical density (650 nm) ([1]; 0.1 ng/mL): 0.182 and 0.206 and 0.197 | optical density (650 nm) ([1]; 0.31 ng/mL): 0.126 and 0.115 | optical density (650 nm) ([1]; 0.5 ng/mL): 0.719 and 0.594 and 0.617 | optical density (650 nm) ([1]; 2.0 ng/mL): 1.660 and 1.529 and 1.498 | optical density (650 nm) ([1]; 7.8 ng/mL): 2.214 and 2.163 | optical density (650 nm) ([1]; 31.3 ng/mL): 2.438 and 2.327 and 2.350 | optical density (650 nm) ([1]; 125 ng/mL): 2.451 and 2.411 and 2.467 | EC50 ([1]; HEK-BLUE-hTLR2 cells): 0.605 nM | activity at TLR2 (in words) ([1]; HEK-BLUE-hTLR2 cells): significant activity | fold induction at 0.0001 µg/mL ([1]; HEK-Blue hTLR2, 0.1 ng/mL, read-out: Fold induction (ratio of average induced value to average non-induced value)): 1.9 | fold induction at 0.00031 µg/mL ([1]; HEK-Blue hTLR2, 0.31 ng/mL, read-out: Fold induction (ratio of average induced value to average non-induced value)): 1.2 | fold induction at 0.0005 µg/mL ([1]; HEK-Blue hTLR2, 0.5 ng/mL, read-out: Fold induction (ratio of average induced value to average non-induced value)): 6.2 | fold induction at 0.002 µg/mL ([1]; HEK-Blue hTLR2, 2.0 ng/mL, read-out: Fold induction (ratio of average induced value to average non-induced value)): 15.2 | fold induction at 0.0078 µg/mL ([1]; HEK-Blue hTLR2, 7.8 ng/mL, read-out: Fold induction (ratio of average induced value to average non-induced value)): 21.3 | fold induction at 0.0313 µg/mL ([1]; HEK-Blue hTLR2, 31.3 ng/mL, read-out: Fold induction (ratio of average induced value to average non-induced value)): 23 | fold induction at 0.125 µg/mL ([1]; HEK-Blue hTLR2, 125 ng/mL, read-out: Fold induction (ratio of average induced value to average non-induced value)): 23.7 | Average optical density (650 nm) ([2]; 0.12 pg/mL): 0.740 | optical density (650 nm) ([2]; 0.12 pg/mL): 0.653 and 0.759 and 0.809 | Average optical density (650 nm) ([2]; 0.49 pg/mL): 1.479 | optical density (650 nm) ([2]; 0.49 pg/mL): 1.409 and 1.507 and 1.521 | Average optical density (650 nm) ([2]; 1.95 pg/mL): 1.823 | optical density (650 nm) ([2]; 1.95 pg/mL): 1.795 and 1.757 and 1.916 | Average optical density (650 nm) ([2]; 7.81 pg/mL): 2.260 | optical density (650 nm) ([2]; 7.81 pg/mL): 2.288 and 2.168 and 2.323 | Average optical density (650 nm) ([2]; 31.25 pg/mL): 2.481 | optical density (650 nm) ([2]; 31.25 pg/mL): 2.440 and 2.485 and 2.518 | Average optical density (650 nm) ([2]; 125 pg/mL): 2.521 | optical density (650 nm) ([2]; 125 pg/mL): 2.569 and 2.508 and 2.487 | Average optical density (650 nm) ([2]; 500 pg/mL): 2.611 | optical density (650 nm) ([2]; 500 pg/mL): 2.717 and 2.590 and 2.526 | stimulatory / agonist activity for hTLR2 (in words) ([2]; HEK-Blue hTLR2): stimulatory activity | fold induction at 120 fg/mL ([2]; HEK-Blue hTLR2, 0.12 pg/mL, read-out: Fold Induction (ratio of average induced value to average non-induced value)): 10.3 | fold induction at 490 fg/mL ([2]; HEK-Blue hTLR2, 0.49 pg/mL, read-out: Fold Induction (ratio of average induced value to average non-induced value)): 20.5 | fold induction at 1.95 pg/mL ([2]; HEK-Blue hTLR2, 1.95 pg/mL, read-out: Fold Induction (ratio of average induced value to average non-induced value)): 25.3 | fold induction at 7.81 pg/mL ([2]; HEK-Blue hTLR2, 7.81 pg/mL, read-out: Fold Induction (ratio of average induced value to average non-induced value)): 31.4 | fold induction at 31.25 pg/mL ([2]; HEK-Blue hTLR2, 31.25 pg/mL, read-out: Fold Induction (ratio of average induced value to average non-induced value)): 34.5 | fold induction at 0.000125 µg/mL ([2]; HEK-Blue hTLR2, 125 pg/mL, read-out: Fold Induction (ratio of average induced value to average non-induced value)): 35 | fold induction at 0.0005 µg/mL ([2]; HEK-Blue hTLR2, 500 pg/mL, read-out: Fold Induction (ratio of average induced value to average non-induced value)): 36.3 | EC50 ([2]; agonism of hTLR2, HEK-Blue hTLR2): 0.214 nM | stimulatory response in HEK-Blue Null2 (mouse) cells (in words) [3]: not observed | storage stability under accelerated conditions (in words) [4]: most stable compounds | pH of formulation ([5]; 0-days): 5.6 | pH of formulation ([5]; 9-days, 40° C./75% RH): 5.7 | pH of formulation ([5]; 28-days, 40° C./75% RH): 5.7
